According to US7862995B2, “Methods and materials for predicting responsiveness to treatment with dual tyrosine kinase inhibitor” (Targeted Molecular Diagnostics, priority 2004, dated 2011):
“Also recorded” adds a separate entry of the source.

Assays:
FOXO3 = assay: ELISA gel for FOXO3; conditions: following treatment
[1] = tested on: ER in breast cancer tissues; assay: IHC of ER in breast cancer tissues after treatment; format: in vivo
[2] = tested on: forkhead transcription factor 3 (FOXO3A) in AU-565 breast cancer cells; assay: FOXO3A staining of AU-565 breast cancer cells; format: cell-based
[3] = Clinical response of a subject treated with a small molecule dual inhibitor of EGFR/erbB2; format: in vivo, human; conditions: one subject
[4] = tested on: invasive breast carcinoma; assay: TUNEL staining of PCD in patient tumor samples; format: in vivo, human
Procedure: All TUNEL solutions and staining reagents used in the present invention were purchased from Roche. Paraffin-embedded tissue clinical samples were dewaxed and rehydrated by heating at 60° C. followed by washing in xylene and rehydration through a graded series of washes with ethanol and double distilled water. Samples were incubated for 15-30 min at 21-37° C. with Proteinase K. Slides were rinsed twice with PBS. The area around the sample was dried and 50 μl of TUNEL reaction mixture was added to each slide. A coverslip was added to each slide and incubated for 60 min at 37° C. in a humidified chamber in the dark. The slides were rinsed three times with PBS. The TUNEL signal was converted by first drying the area around the sample and then adding 50 μl of Converter-POD reagent. The slides were incubated in a humidified chamber for 30 min at 37° C. and then rinsed three times in PBS. 100 μl of DAB Substrate was added to each slide and incubated for 10 min at 15-25° C. The slides were then rinsed three times with PBS. Slides were mounted under glass coverslips and TUNEL staining was analyzed under a light microscope.

[5] = tested on: pAkt, pErk1 and pErk2 in MCF-7+HER2 cells; assay: Western blot of MCF-7+HER2 cells for pErk1/Erk2/pAkt; format: cell-based
[6] = tested on: ER (and PR) expression in breast cancer cells; assay: ER (and PR) expression in breast cancer cells; format: cell-based
ER in MCF-7(HER2) cells = assay: ER localization by immunofluorescence in MCF-7(HER2) cells; format: cell-based; conditions: 1 mM GW2974 for 4 days
Excerpt: Nuclei are stained with DAPI and ER is detected by an immunofluorescent antibody

[7] = tested on: breast, gastric, and head/neck carcinoma cell lines compared to normal human foreskin fibroblasts (HFF); conditions: cited from earlier work
BT474 breast tumor cells = assay: Cell death in estrogen-stimulated BT474 cells, methylene blue staining; format: cell-based, human; conditions: 1 μM estrogen 24 hr, 5 μM GW2974 90 min, 10 μM tamoxifen 72 hr
Procedure: Exponentially growing BT474 cells were treated with 1 μM estrogen for 24 hr. After 24 hr the cells were either untreated or treated with 5 μM small molecule dual inhibitor of EGFR/erbB2 (Sigma, GW2974) for 90 min. After 90 min, the cells were either untreated or treated with 10 μM tamoxifen for 72 hr. Cells were then washed with 1×PBS, stained with methylene blue (1% methylene blue in 50% methanol), rinsed with water, and dried overnight.

[8] = tested on: AU-565 breast cancer cells; assay: Viability of AU-565 and Bcl-2-transfected AU-565 cells after GW2974 treatment; format: cell-based
Excerpt: Au-565 breast cancer cells were obtained from the American Tissue Culture Collection, (deposit # CRL-2351) (Manassas, Va.) and were transfected with a Bcl-2 cDNA to express high levels of Bcl-2. Methods of transfecting cells are well known in the art and any known methods may be used in this example. Transfected Au-565 cells were then exposed to GW2974 (Sigma-Aldrich, St. Louis, Mo.), a dual EGFR/HER2 tyrosine kinase inhibitor.

| SMILES | FOXO3 expression (FOXO3) | ER localization [1] | FOXO3A expression [2] | clinical response [3] | duration of response / disease free state ([3]; following treatment) | response of TUNEL-positive patient to treatment ([4]; patient with invasive breast carcinoma (IBC) positive for TUNEL staining) | levels of PCD by TUNEL staining ([4]; patient with invasive breast carcinoma, 21 days after treatment) | effectiveness in cells pre-treated with estrogen ([5]; MCF-7+HER2 cells pre-treated with estrogen, then GW2974) | pAkt expression ([5]; MCF-7+HER2 cells treated with GW2974) | expression of pErk1 and pErk2 ([5]; MCF-7+HER2 cells treated with GW2974, relative to baseline control (actin)) | ER (and PR) expression [6] | ER localization (ER in MCF-7(HER2) cells) | selectivity in inhibiting cell growth [7] | cell death (BT474 breast tumor cells) | viable cells ([8]; AU-565/Bcl-2 cells (overexpressing Bcl-2) treated by GW2974) | viable cells ([8]; AU-565 cells treated by GW2974) [%] | higher rate of cell survival in cells with high Bcl-2 expression ([8]; following treatment with GW2974) |
| --- | --- | --- | --- | --- | --- | --- | --- | --- | --- | --- | --- | --- | --- | --- | --- | --- | --- |
| CS(=O)(=O)CCNCc1ccc(-c2ccc3ncnc(Nc4ccc(OCc5cccc(F)c5)c(Cl)c4)c3c2)o1 [lapatinib] | upregulation of FOXO3 | change in ER localization | upregulated; also recorded: upregulates FOXO3A | complete response | at least 20 months | responded well | significantly increased levels of PCD | – | – | – | – | – | – | – | – | – | – |
| CN(C)c1cc2c(Nc3ccc4c(cnn4Cc4ccccc4)c3)ncnc2cn1 [GW2974] | – | – | – | – | – | – | – | not effective | not expressed; also recorded: greatly reduced | decreased | upregulates ER (and PR) expression | accumulation of the ER in the cellular nucleus | greater than 75 fold | increases cell death in the presence of tamoxifen | approximately 50% | ~20 | approximately 30% |
